Experimental data taken from publication PMC11514582, “Leveraging the Aggregated Protein Dye YAT2150 for Malaria Chemotherapy” (Pharmaceutics, 2024).
≈ marks a conversion by molar mass, not a printed value. Read-outs that look alike come from different tables or passages of the source.

How the values were obtained:
[1] = Solubility in PBS
[2] = Human plasma protein binding (Rapid Equilibrium Dialysis); type: in vitro ADME; settings: pH 7.2, RED, 4 h at 37 °C
Method: The assay was carried out by Rapid Equilibrium Dialysis (RED). The compounds were dissolved at 5 μM in human plasma and added to the corresponding insert of the RED device (Thermo Fisher Scientific, Inc., Waltham, MA, USA), and dialysis was performed for 4 h at 37 °C in […], 25 mM tris-HCl, pH 7.2 (Tris BupH^TM, Thermo Fisher Scientific, Inc.). Then, 50-µL aliquots from each chamber were transferred to empty vials, to which 50 µL of dialysis buffer was added. As control, 50 µL of plasma was mixed with 50 µL of buffer. Three hundred µL of acetonitrile was added to all the samples, which were analyzed by ultra-performance liquid chromatography with tandem mass spectrometry as previously described.

[3] = Bidirectional permeability in Caco-2 cell monolayer; settings: human
[4] = cited from earlier work
[5] = test system: P. falciparum asexual blood stages; test: microbe, parasite or virus in culture; settings: Plasmodium falciparum
Method: The asexual blood stages of P. falciparum parasites of the 3D7 strain (Malaria Research and Reference Reagent Resource Center, Manassas, VA, USA) were cultured in group B human RBCs at 3% hematocrit, which was kept throughout the experiments, and incubated in RPMIc. Parasites were maintained at 37 °C under an atmosphere of 5% O2, 5% CO2, and 90% N2. […] The parasites were then cultured under standard conditions for 48 h, allowing for a complete replication cycle. After the incubation period, 3 µL of culture from each well was mixed with 197 µL of PBS containing 0.1 µM Syto 11 (Thermo Fisher Scientific, Inc.) to obtain a final concentration of 1 × 10^6 to 10 × 10^6 cells/mL. Parasitemia levels were measured using an LSRFortessa flow cytometer equipped with a standard configuration of four lasers and 20 parameters. Single-cell populations were identified on a forward-side scatter plot. […] The inhibition data were then transformed using sigmoidal fitting to determine IC50.
For stage arrest assays, P. falciparum cultures were tightly synchronized in schizont stages by repeated treatment with 70% Percoll (GE Healthcare, Chicago, IL, USA) [26, 27]. […] Pictures were taken with a Nikon Eclipse 50i microscope equipped with a DS-Fi1 camera (Nikon Corporation, Tokyo, Japan).

[6] = test system: protein aggregation in P. falciparum cultures; test: ThT protein aggregation assay in P. falciparum cultures; type: cell-based, Plasmodium falciparum; settings: treated for 4 h at the IC50
Method: After this incubation, 9 mL of culture was removed and subjected to a second Percoll treatment to pellet the parasitized red blood cells, which were resuspended in 50 μL of lysis buffer, consisting of 4.5 mg/mL NaCl in H2O supplemented with 1× cOmplete^TM protease inhibitor cocktail (Roche, Basel, Switzerland), and treated as described elsewhere [13]. […] Only those samples with parasitemias between 30 and 70% relative to the control were considered for ThT analysis.

[7] = test system: MCF7 human breast adenocarcinoma; settings: cited from earlier work
[8] = test system: HUVEC; settings: cited from earlier work
[9] = physchem
[10] = human, hepatocytes
[11] = molecular target: CYP2D6 (Homo sapiens, UniProt P10635); test: Cytochrome inhibition assay CYP2D6
Sequence of CYP2D6 (P10635 whole entry): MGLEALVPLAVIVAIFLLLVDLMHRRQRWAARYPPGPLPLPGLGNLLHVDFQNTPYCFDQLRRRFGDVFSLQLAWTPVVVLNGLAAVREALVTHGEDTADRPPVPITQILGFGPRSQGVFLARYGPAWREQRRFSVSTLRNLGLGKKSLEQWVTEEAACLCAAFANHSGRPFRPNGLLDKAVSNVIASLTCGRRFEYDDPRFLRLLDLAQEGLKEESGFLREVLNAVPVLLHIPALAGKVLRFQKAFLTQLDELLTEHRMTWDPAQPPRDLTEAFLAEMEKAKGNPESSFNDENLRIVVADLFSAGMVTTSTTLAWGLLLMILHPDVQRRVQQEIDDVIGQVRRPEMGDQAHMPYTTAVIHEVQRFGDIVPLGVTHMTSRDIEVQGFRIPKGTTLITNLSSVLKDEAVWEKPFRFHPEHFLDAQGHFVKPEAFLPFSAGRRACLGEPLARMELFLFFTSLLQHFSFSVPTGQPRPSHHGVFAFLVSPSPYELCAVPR

[12] = molecular target: T1, CYP1A2 (Homo sapiens, UniProt P05177); test: in vitro
T1 sequence (P05177 1-516): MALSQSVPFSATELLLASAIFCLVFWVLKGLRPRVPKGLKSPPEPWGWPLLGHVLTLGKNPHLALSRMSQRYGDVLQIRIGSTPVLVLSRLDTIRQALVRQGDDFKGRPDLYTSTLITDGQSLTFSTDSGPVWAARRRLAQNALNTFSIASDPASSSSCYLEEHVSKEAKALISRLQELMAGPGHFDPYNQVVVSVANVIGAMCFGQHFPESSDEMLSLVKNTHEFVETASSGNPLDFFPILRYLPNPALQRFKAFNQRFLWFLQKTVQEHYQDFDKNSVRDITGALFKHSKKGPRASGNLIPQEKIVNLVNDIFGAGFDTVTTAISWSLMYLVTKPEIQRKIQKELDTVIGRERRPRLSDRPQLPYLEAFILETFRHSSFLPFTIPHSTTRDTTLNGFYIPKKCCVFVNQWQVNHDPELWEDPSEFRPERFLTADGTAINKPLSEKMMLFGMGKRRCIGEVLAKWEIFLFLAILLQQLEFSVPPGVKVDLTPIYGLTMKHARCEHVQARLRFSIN

[13] = test system: liver stages of P. berghei in Huh7; settings: read-out: IC50 against liver stages of P. berghei; cited from earlier work
[14] = test system: P. falciparum gametocytes; settings: cited from earlier work
[15] = Microsomal stability
[16] = test system: P. falciparum asexual blood stages; settings: cited from earlier work
[17] = molecular target: CYP2C9 (Homo sapiens, UniProt P11712); test: in vitro
Sequence of CYP2C9 (P11712 whole entry): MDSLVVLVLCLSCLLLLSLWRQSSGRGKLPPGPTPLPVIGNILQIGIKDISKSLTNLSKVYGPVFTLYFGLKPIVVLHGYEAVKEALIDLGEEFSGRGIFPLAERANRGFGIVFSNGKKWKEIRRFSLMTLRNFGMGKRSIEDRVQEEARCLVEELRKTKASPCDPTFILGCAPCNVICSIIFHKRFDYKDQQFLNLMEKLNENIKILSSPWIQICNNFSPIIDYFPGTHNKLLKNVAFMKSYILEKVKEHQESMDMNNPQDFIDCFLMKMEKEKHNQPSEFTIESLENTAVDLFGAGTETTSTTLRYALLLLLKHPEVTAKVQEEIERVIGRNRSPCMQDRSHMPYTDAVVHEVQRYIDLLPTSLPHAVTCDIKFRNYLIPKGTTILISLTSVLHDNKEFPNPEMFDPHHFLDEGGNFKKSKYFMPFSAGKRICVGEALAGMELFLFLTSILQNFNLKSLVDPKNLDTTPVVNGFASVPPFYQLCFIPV

[18] = test system: P. berghei ookinete development; test: Ex vivo gametocyte-to-ookinete transition inhibition (ookinete maturation) assay; type: cell-based, Plasmodium berghei; settings: up to a concentration of 2 µM
Method: Eight days before ookinete production, 100 µL of a red blood cell (RBC) pellet containing the Plasmodium berghei circumsporozoite protein and thrombospondin-related adhesive protein (TRAP)-related protein (CTRP)-green fluorescent protein (GFP) strain (CTRP-GFP, which expresses GFP when reaching ookinete stage, kindly provided by Inga Siden-Kiamos) in cryopreservation solution (RBC pellet:RPMI:30% glycerol in water, 1:1:2) was administered intraperitoneally (i.p.) to a BALB/c mouse (Charles River Laboratories, Wilmington, MA, USA). […] The effect of drugs on gametocyte-to-ookinete conversion was assessed in three independent replicas by plating 120 µL of each culture treated with serial dilutions of the compounds in 96-well plates and incubated for 24 h at 21 °C with orbital shaking at 50 rpm (modified from). Finally, samples diluted 1:100 in PBS were analyzed in an LSRFortessa flow cytometer (BD Biosciences, Franklin Lakes, NJ, USA) set up with the 4 lasers, 20 parameters standard configuration. The GFP positive cell population was counted (λexcitation: 488 nm; λemission: 525/40 nm) using BD FACSDiva software 6.1.3 (BD Biosciences) for data collection and Flowing Software 2.5.1 (Turku Center for Biotechnology, Turku, Finland) for analysis.

[19] = 3D7, read-out: in vitro IC50 as determined in our experimental setting

CC(=O)[C@H]1CC[C@H]2[C@@H]3CCC4=CC(=O)CC[C@]4(C)[C@H]3CC[C@]12C [Progesterone]
solubility [1]: 8 µM (≈ 2.52 µg/mL)

O=C1NC(=O)C(c2ccccc2)(c2ccccc2)N1 [Phenytoin]
fraction unbound at 4 h, 5 μM [2]: 0.167

COc1cc2c(c(OC)c1OC)-c1ccc(OC)c(=O)cc1[C@@H](NC(C)=O)CC2 [Colchicine]
Papp ([3]; Caco-2): 0.26 ± 0.02 ×10⁻⁶ cm/s
Papp B→A ([3]; Caco-2): 8.98 ± 0.47 ×10⁻⁶ cm/s
efflux ratio ([3]; Caco-2, Transport through Caco-2 Efflux ratio, reference compounds, tested in parallel): 35.3 ± 3
efflux ratio ([3]; Caco-2, efflux ratios of reference compounds, as quoted in text from Supplementary Table S2): 33
Papp AB reported ([4]; ref 24 (supplement list)): 1.3 ×10⁻⁶ cm/s
Papp BA reported ([4]; ref 24 (supplement list)): 5.4 ×10⁻⁶ cm/s

C[C@@H]1CC[C@H]2[C@@H](C)C(=O)O[C@@H]3O[C@@]4(C)CC[C@@H]1[C@]32OO4 [artemisinin]
IC50 [5, 19]: 10.8 nM
effect on protein aggregation (ThT fluorescence) [6]: did not have an observable effect

N.N.[Cl][Pt][Cl] [Cisplatin]
CC50 [7]: 16700 nM
CC50 [8]: 2350 ± 40 nM

COc1cc2nc(N3CCN(C(=O)c4ccco4)CC3)nc(N)c2cc1OC [Prazosin]
solubility [9]: 63.8 µM (≈ 24.5 µg/mL)
Hepatocyte stability (remaining after 2 h), reference compounds [10]: 70.2%

C=C[C@H]1C[N@@]2CC[C@H]1C[C@@H]2[C@@H](O)c1ccnc2ccc(OC)cc12 [Quinidine]
inhibition at 0.0073 µM [11]: 69%

Cc1nc2c([nH]1)c(=O)n(C)c(=O)n2Cc1ccco1 [Furafylline]
inhibition at 2 µM [12]: 61%

O=C1C(O)=C([C@H]2CC[C@H](c3ccc(Cl)cc3)CC2)C(=O)c2ccccc21 [atovaquone]
IC50 [5, 19]: 1 nM
effect on protein aggregation (ThT fluorescence) [6]: did not have an observable effect

COc1cc(NC(C)CCCN)c2ncccc2c1 (stereo not shown) [primaquine]
IC50 [13]: ~10000 nM
IC50 ([14]; Table S2, ref 10 (supplement list), read-out: IC50 P. falciparum early/stage V gametocytes, reference compound): 18900 ± 2000 nM
IC50 ([14]; stage IV-V gametocytes, read-out: IC50 for P. falciparum gametocytes (primaquine)): ~20000 nM
IC50 [5, 19]: 3000 nM
effect on protein aggregation (ThT fluorescence) [6]: reduce protein aggregation

C[C@]12CC[C@H]3[C@@H](CCC4=CC(=O)CC[C@@]43C)[C@@H]1CC[C@@H]2O [Testosterone]
half-life ([15]; human, microsomes): 15.3 min
microsomal CLint ([15]; human, microsomes): 55.6 µL/min/mg
Microsomal stability (remaining after 1 h), reference compound ([15]; tested in parallel): 6.5%

CCN(CC)CCCC(C)Nc1ccnc2cc(Cl)ccc12 (stereo not shown) [chloroquine]
IC50 ([16]; Table S2, ref 10 (supplement list), read-out: IC50 P. falciparum (3D7) blood stages, reference compound): 29.7 ± 6 nM
IC50 ([5]; read-out: in vitro IC50 as determined in our experimental setting): 7 nM
effect on protein aggregation (ThT fluorescence) [6]: reduce protein aggregation

Nc1ccc(S(=O)(=O)Nc2ccnn2-c2ccccc2)cc1 [Sulfaphenazole]
inhibition at 0.37 µM [17]: 43%

COc1cc2c(cc1OC)C(=O)C(CC1CCN(CCCNc3c4c(nc5cc(Cl)ccc35)CCCC4)CC1)C2 (stereo not shown) [DONE3TCl]
effect on ookinete development [18]: much less significant effect
IC50 ([16]; read-out: IC50 in in vitro P. falciparum asexual blood stage cultures): ~80 nM

C[C@]12CC[C@@H]3c4ccc(OS(=O)(=O)O)cc4CC[C@H]3[C@@H]1CCC2=O [Estrone-3-sulfate]
Transport through Caco-2 AB (Papp), reference compounds: 0.44 ± 0.03 ×10⁻⁶ cm/s
Transport through Caco-2 Efflux ratio, reference compounds: 26.5±3.5
Transport through Caco-2 BA (Papp), reference compounds (human): 11 ± 0.94 ×10⁻⁶ cm/s
Papp AB reported ([4]; not told): 2.7 ×10⁻⁶ cm/s
Papp BA reported ([4]; not told): 17.5 ×10⁻⁶ cm/s
